Drawing on ChEMBL document CHEMBL3991601, “The target landscape of clinical kinase drugs” (Science, 2017), this text covers Kd for twelve molecules.

As usually defined, the Kd is a measure of binding affinity in units of concentration.

The target of test [1] is Cyclin-dependent kinase 13 (Homo sapiens, UniProt Q14004).
Test [2] addresses Citron Rho-interacting kinase (Homo sapiens, UniProt O14578).
For test [3], the target named is ATP-dependent RNA helicase DDX3X (Homo sapiens, UniProt O00571).
Test [4] has as its target T1, Delta(24)-sterol reductase (Homo sapiens, UniProt Q15392).
T1 sequence (Q15392 whole entry): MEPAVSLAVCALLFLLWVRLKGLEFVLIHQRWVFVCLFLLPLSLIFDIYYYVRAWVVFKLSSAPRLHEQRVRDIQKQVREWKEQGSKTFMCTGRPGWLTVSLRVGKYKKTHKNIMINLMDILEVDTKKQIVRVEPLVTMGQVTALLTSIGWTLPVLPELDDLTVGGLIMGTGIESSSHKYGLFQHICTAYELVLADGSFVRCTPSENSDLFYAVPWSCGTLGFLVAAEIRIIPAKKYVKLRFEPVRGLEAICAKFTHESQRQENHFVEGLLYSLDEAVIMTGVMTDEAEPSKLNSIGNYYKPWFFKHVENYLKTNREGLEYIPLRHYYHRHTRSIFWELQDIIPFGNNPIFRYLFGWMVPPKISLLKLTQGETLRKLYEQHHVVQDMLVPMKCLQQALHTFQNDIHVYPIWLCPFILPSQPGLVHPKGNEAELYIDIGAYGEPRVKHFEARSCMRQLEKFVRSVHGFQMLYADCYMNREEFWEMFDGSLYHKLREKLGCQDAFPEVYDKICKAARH

The target of test [5] is DnaJ homolog subfamily A member 1 (Homo sapiens, UniProt P31689).
The target of a further test is Ephrin type-A receptor 4 (Homo sapiens, UniProt P54764).
Test [6] deals with Tyrosine-protein kinase JAK1 (Homo sapiens, UniProt P23458).
For test [7], the target named is Mitogen-activated protein kinase kinase kinase 4 (Homo sapiens, UniProt Q9Y6R4).
The target of test [8] is Myosin light chain kinase, smooth muscle (Homo sapiens, UniProt Q15746).
Test [9] has as its target Platelet-derived growth factor receptor beta (Homo sapiens, UniProt P09619).
For test [10], the target named is T2, Serine/threonine-protein kinase D2 (Homo sapiens, UniProt Q9BZL6).
T2 sequence (Q9BZL6 whole entry): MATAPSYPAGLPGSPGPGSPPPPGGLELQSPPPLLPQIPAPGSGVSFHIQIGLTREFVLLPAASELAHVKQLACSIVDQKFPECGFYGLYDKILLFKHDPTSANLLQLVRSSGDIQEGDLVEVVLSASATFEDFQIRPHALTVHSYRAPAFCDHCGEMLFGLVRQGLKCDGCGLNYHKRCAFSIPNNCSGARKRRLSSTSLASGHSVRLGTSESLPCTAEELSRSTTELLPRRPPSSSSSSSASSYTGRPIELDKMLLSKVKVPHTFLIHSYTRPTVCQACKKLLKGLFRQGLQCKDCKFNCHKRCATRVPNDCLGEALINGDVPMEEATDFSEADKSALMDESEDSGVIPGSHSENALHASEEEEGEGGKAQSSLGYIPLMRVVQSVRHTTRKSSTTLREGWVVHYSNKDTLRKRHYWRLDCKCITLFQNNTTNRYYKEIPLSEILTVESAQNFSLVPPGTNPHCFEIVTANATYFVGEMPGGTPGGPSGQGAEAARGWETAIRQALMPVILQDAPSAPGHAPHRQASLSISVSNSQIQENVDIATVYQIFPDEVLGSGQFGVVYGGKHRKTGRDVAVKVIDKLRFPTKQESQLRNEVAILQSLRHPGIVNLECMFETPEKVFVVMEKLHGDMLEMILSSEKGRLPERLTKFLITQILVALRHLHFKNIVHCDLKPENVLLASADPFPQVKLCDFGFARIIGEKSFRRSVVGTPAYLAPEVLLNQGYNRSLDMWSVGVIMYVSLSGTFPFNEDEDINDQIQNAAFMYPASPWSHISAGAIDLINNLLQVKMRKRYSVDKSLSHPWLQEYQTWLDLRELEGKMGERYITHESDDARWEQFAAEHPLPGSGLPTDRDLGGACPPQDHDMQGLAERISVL

Test [11] addresses T3, Ras-related protein Rab-27A (Homo sapiens, UniProt P51159).
T3 sequence (P51159 whole entry): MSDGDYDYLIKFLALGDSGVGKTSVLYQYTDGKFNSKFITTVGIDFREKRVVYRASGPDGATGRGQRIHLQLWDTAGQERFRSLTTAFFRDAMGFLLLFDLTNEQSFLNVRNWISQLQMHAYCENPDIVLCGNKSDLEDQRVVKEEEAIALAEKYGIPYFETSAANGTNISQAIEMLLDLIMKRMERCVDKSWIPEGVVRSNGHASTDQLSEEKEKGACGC

For test [12], the target named is Mitotic checkpoint serine/threonine-protein kinase BUB1 (Homo sapiens, UniProt O43683).
Test [13] concerns the target T4, Serine/threonine-protein kinase Nek2 (Homo sapiens, UniProt P51955).
T4 sequence (P51955 whole entry): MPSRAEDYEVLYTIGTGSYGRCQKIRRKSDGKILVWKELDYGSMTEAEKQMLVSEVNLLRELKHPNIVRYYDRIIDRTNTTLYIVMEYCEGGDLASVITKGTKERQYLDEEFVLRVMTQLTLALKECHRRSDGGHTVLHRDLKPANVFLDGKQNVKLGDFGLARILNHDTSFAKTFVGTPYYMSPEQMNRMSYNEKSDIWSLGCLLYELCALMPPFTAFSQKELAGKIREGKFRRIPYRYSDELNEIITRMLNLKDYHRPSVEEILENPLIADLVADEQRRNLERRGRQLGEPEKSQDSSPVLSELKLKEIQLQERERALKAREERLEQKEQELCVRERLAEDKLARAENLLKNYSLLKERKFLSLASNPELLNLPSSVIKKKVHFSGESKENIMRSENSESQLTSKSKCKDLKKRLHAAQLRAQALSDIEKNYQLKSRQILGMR

Calls of active or inactive are those of the source.
Also: in the data inactive means no Kd found up to 30 µM.

DnaJ homolog subfamily A member 1, sequence (P31689 whole entry): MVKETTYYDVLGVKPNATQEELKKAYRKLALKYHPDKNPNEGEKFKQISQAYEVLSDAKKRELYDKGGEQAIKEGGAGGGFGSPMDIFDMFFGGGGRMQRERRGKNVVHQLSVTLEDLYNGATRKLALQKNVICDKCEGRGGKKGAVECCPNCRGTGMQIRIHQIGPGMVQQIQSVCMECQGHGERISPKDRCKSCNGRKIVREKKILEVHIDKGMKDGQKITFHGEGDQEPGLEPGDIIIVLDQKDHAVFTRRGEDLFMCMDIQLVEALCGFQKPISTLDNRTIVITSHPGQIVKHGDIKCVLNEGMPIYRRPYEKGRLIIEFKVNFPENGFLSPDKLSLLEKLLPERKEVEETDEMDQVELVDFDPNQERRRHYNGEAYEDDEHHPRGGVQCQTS
Cyclin-dependent kinase 13, sequence (Q14004 whole entry): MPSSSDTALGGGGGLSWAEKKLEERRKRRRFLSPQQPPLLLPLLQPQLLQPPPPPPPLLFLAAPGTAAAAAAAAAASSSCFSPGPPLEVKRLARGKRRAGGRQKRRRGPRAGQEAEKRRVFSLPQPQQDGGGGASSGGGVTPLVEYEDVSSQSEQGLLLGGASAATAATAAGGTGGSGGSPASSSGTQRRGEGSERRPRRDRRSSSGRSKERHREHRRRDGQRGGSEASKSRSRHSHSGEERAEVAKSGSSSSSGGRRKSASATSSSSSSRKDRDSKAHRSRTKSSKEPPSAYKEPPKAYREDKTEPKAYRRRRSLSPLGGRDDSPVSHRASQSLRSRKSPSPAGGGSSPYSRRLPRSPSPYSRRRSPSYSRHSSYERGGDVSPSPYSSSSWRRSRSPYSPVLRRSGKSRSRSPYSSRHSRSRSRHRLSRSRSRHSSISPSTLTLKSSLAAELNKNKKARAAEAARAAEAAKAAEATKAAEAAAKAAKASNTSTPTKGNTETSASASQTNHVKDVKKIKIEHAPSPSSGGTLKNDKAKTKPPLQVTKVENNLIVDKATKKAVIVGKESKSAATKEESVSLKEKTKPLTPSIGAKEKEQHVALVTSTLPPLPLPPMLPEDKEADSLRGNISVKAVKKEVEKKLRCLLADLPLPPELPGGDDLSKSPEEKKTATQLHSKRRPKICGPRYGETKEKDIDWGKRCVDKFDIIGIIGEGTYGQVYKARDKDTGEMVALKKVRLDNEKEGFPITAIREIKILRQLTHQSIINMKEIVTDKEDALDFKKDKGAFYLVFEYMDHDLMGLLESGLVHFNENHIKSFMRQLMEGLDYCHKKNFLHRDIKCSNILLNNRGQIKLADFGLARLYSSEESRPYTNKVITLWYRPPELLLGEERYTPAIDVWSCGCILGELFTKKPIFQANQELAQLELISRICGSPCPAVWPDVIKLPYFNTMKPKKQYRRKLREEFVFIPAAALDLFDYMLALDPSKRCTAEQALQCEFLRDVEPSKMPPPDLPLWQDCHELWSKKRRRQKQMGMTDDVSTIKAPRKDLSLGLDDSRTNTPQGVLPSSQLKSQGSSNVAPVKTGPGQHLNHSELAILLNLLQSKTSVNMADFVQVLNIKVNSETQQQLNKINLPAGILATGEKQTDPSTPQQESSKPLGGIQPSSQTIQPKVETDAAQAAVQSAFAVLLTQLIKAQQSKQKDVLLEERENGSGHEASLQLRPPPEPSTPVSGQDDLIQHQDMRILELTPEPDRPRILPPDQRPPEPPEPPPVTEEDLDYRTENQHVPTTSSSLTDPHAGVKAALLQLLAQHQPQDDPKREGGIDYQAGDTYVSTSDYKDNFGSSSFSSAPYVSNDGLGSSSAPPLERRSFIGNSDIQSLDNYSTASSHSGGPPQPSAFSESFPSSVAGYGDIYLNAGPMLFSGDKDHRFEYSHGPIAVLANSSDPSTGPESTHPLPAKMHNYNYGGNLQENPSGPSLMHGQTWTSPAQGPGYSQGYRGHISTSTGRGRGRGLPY
Myosin light chain kinase, smooth muscle, sequence (Q15746 whole entry): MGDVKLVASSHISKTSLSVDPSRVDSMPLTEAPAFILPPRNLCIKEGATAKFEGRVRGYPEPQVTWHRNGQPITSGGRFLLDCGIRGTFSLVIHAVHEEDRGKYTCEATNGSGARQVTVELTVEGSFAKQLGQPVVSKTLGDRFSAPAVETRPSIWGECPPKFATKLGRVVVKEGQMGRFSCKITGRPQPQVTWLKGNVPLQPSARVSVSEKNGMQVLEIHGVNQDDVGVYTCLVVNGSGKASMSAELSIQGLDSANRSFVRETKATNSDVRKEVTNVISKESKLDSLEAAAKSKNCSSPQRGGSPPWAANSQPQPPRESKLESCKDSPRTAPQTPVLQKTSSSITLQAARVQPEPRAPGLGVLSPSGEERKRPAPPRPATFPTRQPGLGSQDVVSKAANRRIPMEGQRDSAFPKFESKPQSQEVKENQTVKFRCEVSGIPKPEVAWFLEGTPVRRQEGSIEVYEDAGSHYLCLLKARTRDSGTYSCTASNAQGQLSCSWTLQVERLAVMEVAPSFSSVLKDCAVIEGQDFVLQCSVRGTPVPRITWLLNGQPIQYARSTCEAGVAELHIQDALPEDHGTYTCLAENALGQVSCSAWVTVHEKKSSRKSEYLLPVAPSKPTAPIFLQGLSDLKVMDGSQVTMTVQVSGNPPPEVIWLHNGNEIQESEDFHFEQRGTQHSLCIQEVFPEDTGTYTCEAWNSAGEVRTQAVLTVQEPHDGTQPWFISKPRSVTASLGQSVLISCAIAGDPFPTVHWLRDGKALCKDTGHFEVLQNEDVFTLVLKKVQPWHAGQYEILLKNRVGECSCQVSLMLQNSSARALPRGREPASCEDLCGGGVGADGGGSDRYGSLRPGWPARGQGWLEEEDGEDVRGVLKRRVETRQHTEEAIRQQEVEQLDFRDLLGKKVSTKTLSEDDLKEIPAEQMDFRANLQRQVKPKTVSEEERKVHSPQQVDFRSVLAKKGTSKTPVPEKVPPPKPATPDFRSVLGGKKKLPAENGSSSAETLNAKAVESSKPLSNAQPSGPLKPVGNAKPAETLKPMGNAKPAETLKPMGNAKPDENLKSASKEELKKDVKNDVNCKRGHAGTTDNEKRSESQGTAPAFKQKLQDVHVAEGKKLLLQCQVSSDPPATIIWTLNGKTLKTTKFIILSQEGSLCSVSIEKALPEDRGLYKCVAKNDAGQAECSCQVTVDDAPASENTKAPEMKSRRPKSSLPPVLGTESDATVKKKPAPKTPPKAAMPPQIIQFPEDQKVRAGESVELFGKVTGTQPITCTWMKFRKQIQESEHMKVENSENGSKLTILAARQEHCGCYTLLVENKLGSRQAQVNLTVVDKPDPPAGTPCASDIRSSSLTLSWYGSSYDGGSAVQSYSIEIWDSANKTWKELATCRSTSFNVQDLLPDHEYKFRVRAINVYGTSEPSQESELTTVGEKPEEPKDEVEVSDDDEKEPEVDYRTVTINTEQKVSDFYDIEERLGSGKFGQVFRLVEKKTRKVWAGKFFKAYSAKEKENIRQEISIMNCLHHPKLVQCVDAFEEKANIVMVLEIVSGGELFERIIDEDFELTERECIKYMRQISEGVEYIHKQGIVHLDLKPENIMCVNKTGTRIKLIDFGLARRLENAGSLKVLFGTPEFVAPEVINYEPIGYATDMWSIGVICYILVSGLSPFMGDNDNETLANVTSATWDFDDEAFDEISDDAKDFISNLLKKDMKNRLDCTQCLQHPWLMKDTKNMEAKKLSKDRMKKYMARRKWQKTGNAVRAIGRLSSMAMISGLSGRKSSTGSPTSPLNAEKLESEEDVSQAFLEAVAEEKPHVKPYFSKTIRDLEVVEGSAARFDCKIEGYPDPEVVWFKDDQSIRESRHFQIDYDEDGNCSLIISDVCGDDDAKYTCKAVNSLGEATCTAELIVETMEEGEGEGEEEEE
Ephrin type-A receptor 4, sequence (P54764 whole entry): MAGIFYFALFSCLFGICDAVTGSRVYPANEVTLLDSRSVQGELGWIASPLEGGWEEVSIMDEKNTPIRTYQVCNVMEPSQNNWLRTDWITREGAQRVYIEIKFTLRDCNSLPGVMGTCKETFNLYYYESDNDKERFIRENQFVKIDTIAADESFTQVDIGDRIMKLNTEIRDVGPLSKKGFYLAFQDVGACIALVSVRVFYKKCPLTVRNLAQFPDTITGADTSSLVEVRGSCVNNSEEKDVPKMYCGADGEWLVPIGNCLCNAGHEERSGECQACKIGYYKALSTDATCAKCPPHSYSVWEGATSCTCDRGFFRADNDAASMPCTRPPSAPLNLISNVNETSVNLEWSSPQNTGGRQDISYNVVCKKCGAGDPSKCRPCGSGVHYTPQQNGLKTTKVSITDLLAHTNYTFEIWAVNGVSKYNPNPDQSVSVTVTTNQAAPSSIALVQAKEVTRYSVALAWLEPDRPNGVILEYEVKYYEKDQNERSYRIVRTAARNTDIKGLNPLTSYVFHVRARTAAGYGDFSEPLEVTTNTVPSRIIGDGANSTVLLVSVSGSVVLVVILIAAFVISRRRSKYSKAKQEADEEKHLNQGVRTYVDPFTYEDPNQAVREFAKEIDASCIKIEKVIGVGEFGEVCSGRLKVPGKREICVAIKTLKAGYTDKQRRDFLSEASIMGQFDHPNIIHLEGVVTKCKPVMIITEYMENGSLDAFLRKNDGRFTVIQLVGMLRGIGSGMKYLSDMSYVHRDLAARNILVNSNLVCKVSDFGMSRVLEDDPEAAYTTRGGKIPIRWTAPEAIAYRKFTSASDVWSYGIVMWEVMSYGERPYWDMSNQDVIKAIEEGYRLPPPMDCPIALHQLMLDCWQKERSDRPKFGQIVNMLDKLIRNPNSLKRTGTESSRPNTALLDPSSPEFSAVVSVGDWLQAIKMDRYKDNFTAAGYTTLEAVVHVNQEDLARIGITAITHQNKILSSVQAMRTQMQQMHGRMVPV

For the molecule `C[C@@H](c1ccc2nccn2c1)n1nnc2ncc(-c3cnn(C)c3)nc21` [SAVOLITINIB], the Kd (in test [1]; in test [2]; in test [3]; in test [4]; in [5]; on Ephrin type-A receptor 4) was > 30 µM (inactive) throughout. Besides, the Kd in [6], in test [7], in test [8], in test [9], in [10] and in test [11] was > 30 µM (inactive) each time.
Turning to `Cc1nc(N)sc1-c1ccnc(Nc2ccc(N3CCOCC3)cc2)n1` [CYC-116], the Kd in test [12] was 0.111 µM (active); in test [2], 1.1 µM (active); in test [3] it was > 30 µM (inactive); in test [4], > 30 µM (inactive); in test [5], > 30 µM (inactive); in test [6], 5.39 µM (active). In addition, the Kd in [7] and in [11] was > 30 µM (inactive) in each case.
In the case of `Cc1cc(Nc2cc(N3CCN(C)CC3)nc(/C=C/c3ccccc3)n2)n[nH]1` [ENMD-2076], the Kd in test [12], in [1], in [2], in test [3], in test [4] and in test [5] was > 30 µM (inactive) throughout. The Kd (at Ephrin type-A receptor 4; in test [6]; in test [7]; in test [8]; in test [11]) was > 30 µM (inactive) each time.
In the case of `O=C(Nc1cccc(Cl)c1)Nc1ncc(CCNc2ncnc3ccsc23)s1` [SNS-314], the Kd (in test [3]; in test [4]; in test [5]; at Ephrin type-A receptor 4; in test [6]; in test [7]) was > 30 µM (inactive) each time. Further, the Kd in test [8] and in [11] was > 30 µM (inactive) throughout.
As for `Nc1nc(N)c2nc(-c3cccc(O)c3)c(-c3cccc(O)c3)nc2n1` [TG100-115], the Kd in [12], in test [3], in [4], in [5] and in [11] was > 30 µM (inactive) in each case.
As to `CN1CCN(c2ccc3nc(-c4c(N)c5c(F)cccc5[nH]c4=O)[nH]c3c2)CC1` [DOVITINIB], the Kd in test [12], in test [3], in test [4], in [5] and in [11] was > 30 µM (inactive) throughout.
Turning to `CCc1cnn2c(NCc3ccc[n+]([O-])c3)cc(N3CCCC[C@H]3CCO)nc12` [DINACICLIB], the Kd in test [12] is > 30 µM (inactive); in [1], 0.021 µM (active); in test [2], > 30 µM (inactive); in test [3], > 30 µM (inactive); in test [4] it was > 30 µM (inactive); in [5] it was > 30 µM (inactive). Besides, the Kd (at Ephrin type-A receptor 4; in test [6]; in test [7]; in [8]; in test [10]; in test [11]) was > 30 µM (inactive) each time.
For the molecule `OCCn1cc(-c2cnc3nnn(Cc4ccc5ncccc5c4)c3n2)cn1` [PF-04217903], the Kd in [12], in test [1], in test [2], in [3], in test [4] and in test [5] was > 30 µM (inactive) throughout. Further, the Kd (at Ephrin type-A receptor 4; in test [6]; in test [7]; in test [8]; in test [10]; in test [11]) was > 30 µM (inactive) in each case.
`COC(=O)[C@@]1(O)C[C@H]2O[C@]1(C)n1c3ccccc3c3c4c(c5c6ccccc6n2c5c31)C(=O)NC4` [K-252A]: the Kd in test [12], in [1], in test [2], in [3], in test [4] and in test [5] was > 30 µM (inactive) in each case. The Kd was > 30 µM (inactive) at Ephrin type-A receptor 4; > 30 µM (inactive) in test [6]; > 30 µM (inactive) in [7]; > 30 µM (inactive) in test [13]; 1.01 µM (active) in [9]; 0.03 µM (active) in test [10]. Further, the Kd in [11] was > 30 µM (inactive).
Consider `CCn1c(-c2nonc2N)nc2c(C#CC(C)(C)O)ncc(OC[C@H]3CCCNC3)c21` [GSK-690693], for which the Kd in test [12], in [3], in [4], in test [5] and in test [11] was > 30 µM (inactive) in each case.
On to `Cc1cn(-c2cc(NC(=O)c3ccc(C)c(Nc4nccc(-c5cccnc5)n4)c3)cc(C(F)(F)F)c2)cn1` [NILOTINIB], for which the Kd in [12], in test [3], in test [4], in test [5] and in [11] was > 30 µM (inactive) in each case.
On to `CNC(=O)c1cc(Oc2ccc(NC(=O)Nc3ccc(Cl)c(C(F)(F)F)c3)c(F)c2)ccn1` [REGORAFENIB], for which the Kd in [12], in test [1], in [2], in test [3], in test [4] and in test [5] was > 30 µM (inactive) each time. In addition, the Kd (at Ephrin type-A receptor 4; in test [6]; in test [7]; in test [8]; in [13]; in test [10]) was > 30 µM (inactive) throughout. Moreover, the Kd in test [11] was > 30 µM (inactive).
